Reference: patent publication US6852733B2, “Sodium-hydrogen exchanger type 1 inhibitor” (Pfizer Inc., priority 2000, dated 2005)

Tests used:
[1] = Identification of metabolite in human plasma samples by LC/MS/MS and LC/NMR; type: in vivo; conditions: human plasma after intravenous administration of 5-cyclopropyl-1-(quinolin-5-yl)-1H-pyrazole-4-carbonyl]guanidine
From the text: It was identified from samples of human plasma obtained after intravenous administration of 5-cyclopropyl-1-(quinolin-5-yl)-1H-pyrazole-4-carbonyl]guanidine to human subjects. The structure of this compound was independently verified by chemical synthesis. In another aspect of this invention [5-cyclopropyl-1-(2-quinolon-5-yl)-1H-pyrazole-4-carbonyl]guanidine may be prepared by administering [5-cyclopropyl-1-(quinolin-5-yl)-1H-pyrazole-4-carbonyl]guanidine to a human and isolating the desired metabolite from the plasma. Alternatively, the metabolite need not be isolated from the human since it is produced in vivo. […]
An aliquot (100 μL or 50 μL) of the concentrated sample was injected onto an LC/MS/MS instrument equipped with a Zorbax Rx-C8 4.6×150 mm column, analyzed on PE Sciex API 2000 or Finnigan LCQ mass spectrometer and monitored by UV detector at 254 nm. […] Under these LC conditions a metabolite was detected at a retention time of 11.8 minutes ([5-cyclopropyl-1-(quinolin-5-yl)-1H-pyrazole-4-carbonyl]guanidine was detected at 13.7 minutes).
The salts were removed from the above concentrated sample by solid phase extraction. […] 50 μL of this sample was injected onto an LC/NMR instrument equipped with a Zorbax Rx-C8 4.6×150 mm column, analyzed on a Bruker 500 MHz NMR spectrometer and monitored by UV detector at 235 nm. […]

human NHE-1 = human NHE-1 (Homo sapiens, UniProt P19634); experiment: Measurement of human NHE-1 inhibitory activity (NHE-mediated recovery of intracellular pH, BCECF fluorescence)
human NHE-1, sequence (P19634 whole entry): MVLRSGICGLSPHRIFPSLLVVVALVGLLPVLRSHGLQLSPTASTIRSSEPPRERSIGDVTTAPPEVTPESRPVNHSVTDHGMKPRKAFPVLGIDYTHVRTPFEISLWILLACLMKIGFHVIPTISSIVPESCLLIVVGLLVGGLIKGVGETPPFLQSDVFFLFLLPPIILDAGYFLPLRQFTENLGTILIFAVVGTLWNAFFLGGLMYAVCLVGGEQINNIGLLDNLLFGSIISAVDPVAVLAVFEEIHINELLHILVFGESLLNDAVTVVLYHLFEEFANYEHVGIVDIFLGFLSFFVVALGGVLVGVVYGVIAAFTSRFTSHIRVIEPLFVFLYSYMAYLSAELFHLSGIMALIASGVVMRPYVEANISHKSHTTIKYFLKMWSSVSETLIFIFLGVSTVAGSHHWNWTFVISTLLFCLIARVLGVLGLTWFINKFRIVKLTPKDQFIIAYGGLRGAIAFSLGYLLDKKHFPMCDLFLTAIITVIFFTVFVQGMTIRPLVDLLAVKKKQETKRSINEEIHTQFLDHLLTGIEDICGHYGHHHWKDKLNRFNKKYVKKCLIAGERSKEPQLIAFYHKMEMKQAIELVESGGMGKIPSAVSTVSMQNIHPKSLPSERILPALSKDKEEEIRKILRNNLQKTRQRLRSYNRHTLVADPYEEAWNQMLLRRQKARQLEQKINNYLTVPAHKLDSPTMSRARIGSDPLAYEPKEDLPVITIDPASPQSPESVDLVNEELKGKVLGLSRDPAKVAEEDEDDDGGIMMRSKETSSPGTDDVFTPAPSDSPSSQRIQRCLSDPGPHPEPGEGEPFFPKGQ
Description: Methodologies for measurement of human NHE-1 activity and inhibitor potency are based on those published by Watson et al., Am. J. Physiol., 24:G229-G238, 1991), where NHE-mediated recovery of intracellular pH is measured following intracellular acidification. Thus, fibroblasts stably expressing human NHE-1 (Counillon, L. et al., Mol. Pharmacol., 44:1041-1045 (1993) are plated onto collagen coated 96 well plates (50,000/well) and grown to confluence in growth media (DMEM high glucose, 10% fetal bovine serum, 50 u/ml penicillin and streptomycin). Confluent plates are incubated for 30 min at 37° C. with the pH sensitive fluorescent probe BCECF (5 μM; Molecular Probes, Eugene, Oreg.). BCECF loaded cells are incubated for 30 min at 37° C. in acid loading media (70 mM choline chloride, 50 mM NHCl4, 5 mM KCl, 1 mM MgCl2, 1.8 mM CaCl2, 5 mM glucose, 10 mM HEPES, pH 7.5), and then placed in a Fluorescent Imaging Plate Reader (Molecular Devices, CA). BCECF fluorescence is monitored using excitation and emission wavelengths of 485 nm and 525 nM, respectively. Intracellular acidification is initiated via rapid replacement of acid loading media with recovery media (120 mM NaCl, 5 mM KCl, 1 mM MgCl2, 1.8 mM CaCl2, 5 mM glucose, 10 mM HEPES, pH 7.5)±test compound, and NHE-mediated recovery of intracellular pH is monitored as the subsequent time-dependent increase BCECF fluorescence.

Question: Which “metabolite identification in human plasma” value [1] does the source give for `N=C(N)NC(=O)c1cnn(-c2cccc3[nH]c(=O)ccc23)c1C1CC1` [Formula I, [5-cyclopropyl-1-(2-quinolon-5-yl)-1H-pyrazole-4-carbonyl]guanidine] here?
Answer: human metabolite

Question: And the IC50 (human NHE-1)?
Answer: 200 nM
